This note sets out measurements from ChEMBL document CHEMBL4359850, “Synthesis, in vivo and in silico anticonvulsant activity studies of new derivatives of 2-(2,4-dioxo-1,4-dihydroquinazolin-3(2H)-yl)acetamide” (Eur J Med Chem, 2019).

The test system of data set [1] is Mus musculus. The experiment in a line: Anticonvulsive activity in pentylenetetrazole-induced seizure albino mouse model assessed as latecy time at 100 mg/kg, ig administered 30 mins prior to pentylenetetrazole challenge and mesured for 60 mins (reference value: 5.79 +/- 0.58 min). Type of data set: functional.
The test system of data set [2] is Mus musculus. The experiment in a line: Anticonvulsive activity in pentylenetetrazole-induced seizure albino mouse model assessed as number of clonic and tonic convulsion at 100 mg/kg, ig administered 30 mins prior to pentylenetetrazole challenge and mesured per animal for 60 mins (reference value: 3.58 +/- 0.42). Type of data set: functional.
The test system of data set [3] is Mus musculus. The data set can be described thus: Anticonvulsive activity in pentylenetetrazole-induced seizure albino mouse model assessed as proportion of animals with clonic convulsion at 100 mg/kg, ig administered 30 mins prior to pentylenetetrazole challenge and mesured for 60 mins (reference value: 100 %). Type of data set: functional.
Data set [4] deals with Mus musculus. The experiment in a line: Anticonvulsive activity in pentylenetetrazole-induced seizure albino mouse model assessed as proportion of animals with tonic convulsion at 100 mg/kg, ig administered 30 mins prior to pentylenetetrazole challenge and mesured for 60 mins (reference value: 100%). Type of data set: functional.
The test system of data set [5] is Mus musculus. The experiment in a line: Anticonvulsive activity in albino mouse assessed as protection against pentylenetetrazole-induced seizure by measuring severity of convulsion at 100 mg/kg, ig administered 30 mins prior to pentylenetetrazole challenge and mesured for 60 mins (reference value: 5.83 +/- 0.17). Type of data set: functional.
For data set [6], the system named is Mus musculus. The data set can be described thus: Anticonvulsive activity in pentylenetetrazole-induced seizure albino mouse model assessed as duration time of convulsion period at 100 mg/kg, ig administered 30 mins prior to pentylenetetrazole challenge and mesured for 60 mins (reference value: 12 +/- 1.34 min). Type of data set: functional.
For data set [7], the system named is Mus musculus. The data set can be described thus: Anticonvulsive activity in pentylenetetrazole-induced seizure albino mouse model assessed as lifetime of animal to death at 100 mg/kg, ig administered 30 mins prior to pentylenetetrazole challenge and mesured for 60 mins (reference value: 17.45 +/- 1.85 min). Type of data set: functional.
Data set [8] deals with Mus musculus. The data set can be described thus: Anticonvulsive activity in pentylenetetrazole-induced seizure albino mouse model assessed as lethality at 100 mg/kg, ig administered 30 mins prior to pentylenetetrazole challenge and mesured for 60 mins (reference value: 91.7%). Type of data set: functional.
Data set [9] is described as follows: Toxicity in albino mouse assessed as motor coordination impairment by measuring animal fall-off from rod before 1 min at 100 mg/kg, ig administered 30 mins prior to test by rotarod test (reference value: 17%). Type of data set: organism-based. Particulars: in vivo, po.
A short description of data set [10]: Toxicity in albino mouse assessed as motor coordination impairment by measuring animal fall-off from rod before 2 mins at 100 mg/kg, ig administered 30 mins prior to test by rotarod test (reference value: 33%). Particulars: in vivo, po. Type of data set: organism-based.
The nature of data set [11]: Toxicity in albino mouse assessed as motor coordination impairment by measuring animal fall-off from rod before 3 mins at 100 mg/kg, ig administered 30 mins prior to test by rotarod test (reference value: 33%). Type of data set: organism-based. Particulars: in vivo, po, 0.05 h.
A short description of data set [12]: Toxicity in albino mouse assessed as motor coordination impairment by measuring animal fall-off from rod before 5 mins at 100 mg/kg, ig administered 30 mins prior to test by rotarod test (reference value: 50%). Type of data set: organism-based. As to conditions: in vivo, po.
The subject of data set [13] is Mus musculus. The data set can be described thus: Anticonvulsive activity in pentylenetetrazole-induced seizure albino mouse model assessed as decrease in time of death at 100 mg/kg, ig administered 30 mins prior to pentylenetetrazole challenge and mesured for 60 mins relative to control. Type of data set: functional.
Data set [14] deals with Mus musculus. The data set can be described thus: Anticonvulsive activity in pentylenetetrazole-induced seizure albino mouse model assessed as latency time at 300 mg/kg, ig administered 30 mins prior to pentylenetetrazole challenge and mesured for 60 mins (reference value: 5.79 +/- 0.58 min). Type of data set: functional.
In data set [15] the test system is Mus musculus. The experiment in a line: Anticonvulsive activity in pentylenetetrazole-induced seizure albino mouse model assessed as proportion of animals with clonic convulsion at 300 mg/kg, ig administered 30 mins prior to pentylenetetrazole challenge and mesured for 60 mins (reference value: 100 %). Type of data set: functional.
Data set [16] concerns Mus musculus. The data set can be described thus: Anticonvulsive activity in pentylenetetrazole-induced seizure albino mouse model assessed as proportion of animals with tonic convulsion at 300 mg/kg, ig administered 30 mins prior to pentylenetetrazole challenge and mesured for 60 mins (reference value: 100%). Type of data set: functional.
For data set [17], the system named is Mus musculus. The data set can be described thus: Anticonvulsive activity in albino mouse assessed as protection against pentylenetetrazole-induced seizure by measuring severity of convulsion at 300 mg/kg, ig administered 30 mins prior to pentylenetetrazole challenge and mesured for 60 mins (reference value: 5.83 +/- 0.17). Type of data set: functional.
For data set [18], the system named is Mus musculus. The experiment in a line: Anticonvulsive activity in pentylenetetrazole-induced seizure albino mouse model assessed as duration time of convulsion period at 300 mg/kg, ig administered 30 mins prior to pentylenetetrazole challenge and mesured for 60 mins (reference value: 12 +/- 1.34 min). Type of data set: functional.
The subject of data set [19] is Mus musculus. The data set can be described thus: Anticonvulsive activity in pentylenetetrazole-induced seizure albino mouse model assessed as lifetime of animal to death at 300 mg/kg, ig administered 30 mins prior to pentylenetetrazole challenge and mesured for 60 mins (reference value: 17.45 +/- 1.85 min). Type of data set: functional.
The subject of data set [20] is Mus musculus. The experiment in a line: Anticonvulsive activity in pentylenetetrazole-induced seizure albino mouse model assessed as lethality at 300 mg/kg, ig administered 30 mins prior to pentylenetetrazole challenge and mesured for 60 mins (reference value: 91.7%). Type of data set: functional.
Data set [21] can be described thus: Toxicity in albino mouse assessed as motor coordination impairment by measuring animal fall-off from rod before 1 min at 300 mg/kg, ig administered 30 mins prior to test by rotarod test (reference value: 17%). Type of data set: organism-based. Particulars: in vivo, po.
A short description of data set [22]: Toxicity in albino mouse assessed as motor coordination impairment by measuring animal fall-off from rod before 2 mins at 300 mg/kg, ig administered 30 mins prior to test by rotarod test (reference value: 33%). As to conditions: in vivo, po. Type of data set: organism-based.
Data set [23] in a line: Toxicity in albino mouse assessed as motor coordination impairment by measuring animal fall-off from rod before 3 mins at 300 mg/kg, ig administered 30 mins prior to test by rotarod test (reference value: 33%). As to conditions: in vivo, po, 0.05 h. Type of data set: organism-based.
A short description of data set [24]: Toxicity in albino mouse assessed as motor coordination impairment by measuring animal fall-off from rod before 5 mins at 300 mg/kg, ig administered 30 mins prior to test by rotarod test (reference value: 50%). Type of data set: organism-based. As to conditions: in vivo, po.
In data set [25] the test system is Mus musculus. The data set can be described thus: Anticonvulsive activity in pentylenetetrazole-induced seizure albino mouse model assessed as number of clonic and tonic convulsion at 300 mg/kg, ig administered 30 mins prior to pentylenetetrazole challenge and mesured per animal for 60 mins (reference value: 3.58 +/- 0.42). Type of data set: functional.

Consider `O=C(Cn1c(=O)[nH]c2ccccc2c1=O)NCCc1ccccc1`, for which the Time was found to be 11.43 min in data set [1], 9.98 min in data set [6] and 17.79 min in [7]. Further, the Activity in [2] is on record as 1.8; in [3], 100%; in data set [4] it was 100%; in data set [5], 5.6; in data set [8], 80%; in data set [9] it was 33%. The Activity in data set [10] is reported as 50%; in data set [11] it was 50%; in data set [12] it was 67%.
Turning to `O=C(Cn1c(=O)[nH]c2ccccc2c1=O)NCCCc1ccccc1`, the values for the Time in [1], in [6] and in data set [7] were 15.51 min, 3.05 min and 12.16 min, respectively. Also, the Activity is recorded as 1.2 in [2]; 80% in data set [3]; 80% in data set [4]; 4 in [5]; 40% in data set [8]; 17% in [9]. Also, the Activity came out at 33% in data set [10], 50% in [11] and 50% in data set [12].
For `COc1ccccc1CNC(=O)Cn1c(=O)[nH]c2ccccc2c1=O`, the figures for the Time in data set [1], in data set [6] and in data set [7] were 15.14 min, 7.25 min and 12.45 min, respectively. Besides, the Activity amounted to 2.4 in data set [2]; 80% in [3]; 80% in [4]; 4.4 in [5]; 60% in [8]; 50% in [9]. The Activity in [10] turned out to be 67%; in data set [11], 67%; in [12] it was 83%.
For `O=C(Cn1c(=O)[nH]c2ccccc2c1=O)Nc1ccccc1`, the values for the Time in data set [1], in data set [6] and in data set [7] were 10.57 min, 1.24 min and 7.14 min, respectively. The Activity in data set [2] was found to be 1.22; in [3], 100%; in data set [4] it was 55.5%; in data set [5], 4.22; in data set [8] it was 33.3%; in data set [9] it was 17%. Besides, the Activity was 33% in data set [10], 50% in data set [11] and 67% in data set [12].
Take `CCCNC(=O)Cn1c(=O)[nH]c2ccccc2c1=O`: the Time amounted to 7.5 min in data set [1], 2.2 min in data set [6] and 6.89 min in data set [7]. Besides, the Activity in [2] was determined as 1.4; in data set [3], 100%; in data set [4] it was 100%; in data set [5], 5; in data set [8], 40%; in [9] it was 33%. The Activity in data set [10], in data set [11] and in data set [12] was 50% each time.
Take `O=C(Cn1c(=O)[nH]c2ccccc2c1=O)NCc1ccc(Cl)cc1`: the Time was 4.82 min in data set [1], 4.54 min in data set [6] and 9.36 min in data set [7]. Besides, the Activity is listed as 2 in data set [2]; 100% in [3]; 100% in [4]; 6 in data set [5]; 50% in data set [9]; 67% in [10]. The results for the Activity in [11] and in [12] were 67% and 83%, respectively. Moreover, the “fold change (FC)” value in [13] is on record as 1.9.
Consider `C=CCNC(=O)Cn1c(=O)[nH]c2ccccc2c1=O`, for which the Time is reported as 6.6 min in data set [1], 9.8 min in data set [6] and 16.95 min in [7]. In addition, the Activity in data set [2] worked out at 2.2; in [3] it was 100%; in data set [4], 80%; in data set [5] it was 5; in data set [8] it was 60%; in data set [9], 33%. The Activity in [10] is 50%; in data set [11] it was 50%; in data set [12] it was 67%.
With `O=C(Cn1c(=O)[nH]c2ccccc2c1=O)NC1CCCCC1`, the Time is listed as 3.8 min in data set [1], 13.11 min in data set [6] and 11.53 min in [7]. Moreover, the Activity stood at 3.2 in data set [2]; 100% in data set [3]; 100% in data set [4]; 5.6 in data set [5]; 80% in [8]; 17% in data set [9]. Moreover, the figures for the Activity in data set [10], in data set [11] and in data set [12] were 33%, 50% and 50%, respectively.
Turning to `O=C(Cn1c(=O)[nH]c2ccccc2c1=O)NCc1ccccc1`, the Time came to 4.96 min in [1], 14.05 min in data set [6] and 17.5 min in data set [7]. Also, the Activity in [2] is 3; in data set [3], 100%; in [4], 100%; in [5], 5.6; in data set [8], 80%; in data set [9] it was 17%. Further, the results for the Activity in data set [10], in data set [11] and in [12] were 33%, 50% and 50%, respectively.
As to `CCCC(CCC)C(=O)[O-].[Na+]` [VALPROATE SODIUM], the Time in data set [14] was determined as 26.65 min; in data set [18] it was 7.64 min; in data set [19] it was 20.9 min. Moreover, the Activity was found to be 66.7% in [15]; 50% in data set [16]; 2.83 in [17]; 16.7% in [20]; 50% in data set [21]; 67% in [22]. For the same compound, the Activity in [23] came to 83%; in data set [24], 100%; in data set [25], 2.
